Assay results from patent publication US20120295907A1, “INSECTICIDAL COMPOUNDS” (SYNGENTA CROP PROTECTION, LLC, priority 2009, published 2012).

Experiments:
Format in all cases: in vivo
Spodoptera littoralis = Spodoptera littoralis (Egyptian Cotton Leafworm) cotton leaf disc spray test; conditions: foliar, 72 h, 200 ppm spray on cotton leaf discs, L1 larvae, mortality, feeding behavior, growth regulation 3 DAT
Heliothis virescens = Heliothis virescens (Tobacco Budworm) egg test on artificial diet; conditions: 96 h, 200 ppm (concentration in well 18 ppm), eggs 0-24 h old on artificial diet, 4 days, egg mortality, larval mortality, growth regulation
Plutella xylostella = Plutella xylostella (Diamond Back Moth) artificial diet MTP test; conditions: 144 h, 200 ppm (concentration in well 18 ppm), L2 larvae, 6 days, larval mortality, growth regulation
Diabrotica balteata = Diabrotica balteata (Corn Root Worm) artificial diet MTP test; conditions: 120 h, 200 ppm (concentration in well 18 ppm), L2 larvae, 5 days, larval mortality, growth regulation
Thrips tabaci = Thrips tabaci (Onion Thrips) sunflower leaf disc spray test; conditions: foliar, 168 h, 200 ppm spray on sunflower leaf discs, population of mixed ages, 7 days, mortality
Myzus persicae = Myzus persicae (Green Peach Aphid) sunflower leaf disc spray test; conditions: foliar, 144 h, 200 ppm spray on sunflower leaf discs, aphid population of mixed ages, 6 DAT, mortality
Tetranychus urticae = Tetranychus urticae (Two-Spotted Spider Mite) bean leaf disc spray test; conditions: foliar, 192 h, 200 ppm spray on bean leaf discs, mite populations of mixed ages, 8 days, egg, larval and adult mortality, read-out: control of Tetranychus urticae

Measured: pest or weed control at 200 ppm

COc1cc(C(=O)Nc2cccc(C(=O)Nc3c(Cl)cc(C(F)(C(F)(F)F)C(F)(F)C(F)(F)F)cc3Br)c2OC)on1 (centres unmarked) [B89]
not listed: Tetranychus urticae
≥ 80%: all other assays above

COc1c(NC(=O)c2ccc(F)cc2)cccc1C(=O)Nc1c(Cl)cc(C(F)(C(F)(F)F)C(F)(F)C(F)(F)F)cc1Br (centres unmarked) [B19]
not listed: Diabrotica balteata | Thrips tabaci
≥ 80%: all other assays above

COc1c(NC(=O)c2ccc(C(F)(F)F)cc2)cccc1C(=O)Nc1c(Cl)cc(C(F)(C(F)(F)F)C(F)(F)C(F)(F)F)cc1Br (centres unmarked) [B15]
not listed: Diabrotica balteata | Thrips tabaci
≥ 80%: all other assays above

COc1c(NC(=O)c2cccc(F)c2F)cccc1C(=O)Nc1c(Cl)cc(C(F)(C(F)(F)F)C(F)(F)F)cc1Cl [E21]
not listed: Tetranychus urticae
≥ 80%: all other assays above

COc1c(NC(=O)c2ccc(F)cc2Cl)cccc1C(=O)Nc1c(Cl)cc(C(F)(C(F)(F)F)C(F)(F)C(F)(F)F)cc1Br (centres unmarked) [B2, N-[2-bromo-6-chloro-4-(1,2,2,3,3,3-hexafluoro-1-trifluoromethylpropyl)phenyl]-3-(4-fluoro-2-chlorobenzoylamino)-2-methoxybenzamide]
not listed: Diabrotica balteata | Thrips tabaci
≥ 80%: all other assays above

COc1c(NC(=O)c2c(F)cc(F)cc2F)cccc1C(=O)Nc1c(Cl)cc(C(F)(C(F)(F)F)C(F)(F)C(F)(F)F)cc1Br (centres unmarked) [B189, N-{3-[2-Bromo-6-chloro-4-(1,2,2,3,3,3-hexafluoro-1-trifluoromethylpropyl)-phenylcarbamoyl]-2-methoxyphenyl}-2,4,6-trifluorobenzamide]
not listed: Diabrotica balteata | Thrips tabaci
≥ 80%: all other assays above

COc1c(NC(=O)c2cccs2)cccc1C(=O)Nc1c(Cl)cc(C(F)(C(F)(F)F)C(F)(F)C(F)(F)F)cc1Br (centres unmarked) [B44]
not listed: Tetranychus urticae
≥ 80%: all other assays above

COc1c(NC(=O)c2ccc(C)cc2)cccc1C(=O)Nc1c(Cl)cc(C(F)(C(F)(F)F)C(F)(F)C(F)(F)F)cc1Br (centres unmarked) [B8]
not listed: Diabrotica balteata | Thrips tabaci
≥ 80%: all other assays above

COCc1cc(C(F)(C(F)(F)F)C(F)(F)C(F)(F)F)cc(Br)c1NC(=O)c1cccc(NC(=O)c2ccc(F)cc2Cl)c1OC (centres unmarked) [I25]
not listed: Spodoptera littoralis | Tetranychus urticae
≥ 80%: all other assays above

COCc1cc(C(F)(C(F)(F)F)C(F)(F)C(F)(F)F)cc(Cl)c1NC(=O)c1cccc(NC(=O)c2ccc(F)cc2Cl)c1OC (centres unmarked) [H25]
not listed: Spodoptera littoralis | Tetranychus urticae
≥ 80%: all other assays above

COc1c(NC(=O)c2ccc(F)cc2Cl)cccc1C(=O)Nc1c(Cl)cc(C(F)(C(F)(F)F)C(F)(F)C(F)(F)F)cc1Cl (centres unmarked) [C1, N-[2,6-dichloro-4-(1,2,2,3,3,3-hexafluoro-1-trifluoromethylpropyl)phenyl]-3-(4-fluoro-2-chlorobenzoylamino)-2-methoxybenzamide]
not listed: Tetranychus urticae
≥ 80%: all other assays above

COc1c(NC(=O)c2ccccc2)cccc1C(=O)Nc1c(Cl)cc(C(F)(C(F)(F)F)C(F)(F)F)cc1Cl [E16]
not listed: Tetranychus urticae
≥ 80%: all other assays above

COCc1cc(C(F)(C(F)(F)F)C(F)(F)C(F)(F)F)cc(Br)c1NC(=O)c1cccc(NC(=O)c2c(F)cc(F)cc2F)c1OC (centres unmarked) [I2]
not listed: Spodoptera littoralis | Tetranychus urticae
≥ 80%: all other assays above

COCc1cc(C(F)(C(F)(F)F)C(F)(F)C(F)(F)F)cc(Cl)c1NC(=O)c1cccc(NC(=O)c2ccc(C#N)cc2C)c1OC (centres unmarked) [H1]
≥ 80%: Heliothis virescens | Plutella xylostella | Myzus persicae

COc1c(NC(=O)c2ccsc2)cccc1C(=O)Nc1c(Cl)cc(C(F)(C(F)(F)F)C(F)(F)C(F)(F)F)cc1Br (centres unmarked) [B124]
not listed: Diabrotica balteata | Tetranychus urticae
≥ 80%: all other assays above

COc1c(NC(=O)c2ccc(C)s2)cccc1C(=O)Nc1c(Cl)cc(C(F)(C(F)(F)F)C(F)(F)C(F)(F)F)cc1Br (centres unmarked) [B137]
not listed: Tetranychus urticae
≥ 80%: all other assays above

COc1c(NC(=O)c2ccccc2)cccc1C(=O)Nc1c(Cl)cc(C(F)(C(F)(F)F)C(F)(F)C(F)(F)F)cc1Cl (centres unmarked) [C18]
not listed: Diabrotica balteata | Tetranychus urticae
≥ 80%: all other assays above

COc1c(NC(=O)c2cccnc2)cccc1C(=O)Nc1c(Cl)cc(C(F)(C(F)(F)F)C(F)(F)C(F)(F)F)cc1Br (centres unmarked) [B37]
not listed: Heliothis virescens | Tetranychus urticae
≥ 80%: all other assays above

COc1c(NC(=O)c2ccccc2C)cccc1C(=O)Nc1c(Cl)cc(C(F)(C(F)(F)F)C(F)(F)F)cc1Cl [E2]
not listed: Plutella xylostella | Tetranychus urticae
≥ 80%: all other assays above

COc1c(NC(=O)c2ccccc2F)cccc1C(=O)Nc1c(Cl)cc(C(F)(C(F)(F)F)C(F)(F)F)cc1Cl [E1]
not listed: Plutella xylostella | Tetranychus urticae
≥ 80%: all other assays above

COc1c(NC(=O)c2cc(F)c(F)cc2Cl)cccc1C(=O)Nc1c(Cl)cc(C(F)(C(F)(F)F)C(F)(F)C(F)(F)F)cc1Br (centres unmarked) [B73]
not listed: Myzus persicae
≥ 80%: all other assays above

COc1c(NC(=O)c2ccc(F)cc2C)cccc1C(=O)Nc1c(Cl)cc(C(F)(C(F)(F)F)C(F)(F)F)cc1Cl [E7]
not listed: Myzus persicae
≥ 80%: all other assays above

COc1c(NC(=O)c2ccc(C)cc2)cccc1C(=O)Nc1c(Cl)cc(C(F)(C(F)(F)F)C(F)(F)F)cc1Cl [E6]
not listed: Tetranychus urticae
≥ 80%: all other assays above

COc1c(NC(=O)c2ccc(OC(F)(F)F)cc2)cccc1C(=O)Nc1c(Cl)cc(C(F)(C(F)(F)F)C(F)(F)F)cc1Cl [E11]
not listed: Tetranychus urticae
≥ 80%: all other assays above

COc1c(NC(=O)c2ccc(Cl)cc2[N+](=O)[O-])cccc1C(=O)Nc1c(Cl)cc(C(F)(C(F)(F)F)C(F)(F)C(F)(F)F)cc1Br (centres unmarked) [B64]
not listed: Myzus persicae
≥ 80%: all other assays above

COc1c(NC(=O)c2cccnc2SC)cccc1C(=O)Nc1c(Cl)cc(C(F)(C(F)(F)F)C(F)(F)C(F)(F)F)cc1Br (centres unmarked) [B45]
not listed: Tetranychus urticae
≥ 80%: all other assays above

COc1c(NC(=O)c2cccc(C#N)c2)cccc1C(=O)Nc1c(C)cc(C(F)(C(F)(F)F)C(F)(F)C(F)(F)F)cc1C (centres unmarked) [F21]
not listed: Myzus persicae
≥ 80%: all other assays above
